{
  "source": "patent EP0725790B1",
  "about": "“SUBSTITUTED TETRA- AND PENTAPEPTIDE INHIBITORS OF PROTEIN:FARNESYL TRANSFERASE” (PARKE DAVIS & COMPANY, priority 1993, dated 1995)",
  "note": "Non-standard residues stand in square brackets, D forms with d. Residues, ends and D or L forms follow the SMILES beside them. *: point of attachment. pY = N[C@@H](Cc1ccc(OP(=O)(O)O)cc1)C(=O)O; Cbz = O=C(OCc1ccccc1)*; Bn = c1ccc(C*)cc1; NHNH2 = NN*",
  "data": [
    {"biological_target": "T1, rat brain farnesyl protein transferase (Rattus norvegicus, UniProt Q02293+Q04631)", "T1 construct": "40-fold purified rat brain farnesyl protein transferase; from tissue; host or cells: rat brain", "test": "PFT inhibitory activity assay (radiolabeled farnesyl pyrophosphate, biotinylated peptide substrate, streptavidin beads)", "format": "biochemical", "settings": "40-fold purified enzyme; 30 mM potassium phosphate buffer, pH 7.4; 37°C for 30 minutes; farnesyl pyrophosphate 0.12 µM, (biotinyl)-Ahe-Tyr-Lys-Cys-Val-Ile-Met 0.1 µM", "protocol": "The PFT inhibitory activity of compounds of Formula I was assayed in 30 mM potassium phosphate buffer, pH 7.4, containing 7 mM DTT, 1.2 mM MgCl2, 0.1 mM leupeptin, 0.1 mM pepstatin, and 0.2 mM phenylmethylsulfonyl fluoride. Assays were performed in 96 well plates (Wallec) and employed solutions composed of varying concentrations of a compound of Formula I in 100% DMSO. Upon addition of both substrates, radiolabeled farnesyl pyrophosphate ([1-^3H], specific activity 15-30 Ci/mmol, final concentration 0.12 µM) and (biotinyl)-Ahe-Tyr-Lys-Cys-Val-Ile-Met peptide (final concentration 0.1 µM), the enzyme reaction was started by addition of 40-fold purified rat brain farnesyl protein transferase. After incubation at 37°C for 30 minutes, the reaction was terminated by diluting the reaction 2.5-fold with a stop buffer containing 1.5 M magnesium acetate, 0.2 M H3PO4, 0.5% BSA, and strepavidin beads (Amersham) at a concentration of 1.3 mg/mL. After allowing the plate to settle for 30 minutes at room temperature, radioactivity was quantitated on a microBeta counter (model 1450, Wallec).", "units": {"IC50": "nM"}, "values": [
      {"molecule": "COC(=O)[C@@H](C)NC(=O)[C@H](Cc1c[nH]c2ccccc12)NC(=O)[C@H](COCc1ccccc1)NC(=O)[C@H](Cc1ccc(OCc2ccccc2)cc1)NC(=O)[C@H](Cc1c[nH]cn1)NC(=O)OCc1ccccc1", "note": "[Cbz-His-Tyr(OBn)-Ser(OBn)-Trp-DAla-OMe, Cbz-His-Tyr(OBn)-Ser(OBn)-Trp-D-Ala-OMe] (Cbz-HY(Bn)S(Bn)W[dA]-OMe)", "IC50": 19},
      {"molecule": "C[C@@H](NC(=O)[C@H](Cc1c[nH]c2ccccc12)NC(=O)[C@H](COCc1ccccc1)NC(=O)[C@H](Cc1ccc(OP(=O)(O)O)cc1)NC(=O)[C@H](Cc1c[nH]cn1)NC(=O)OCc1ccccc1)C(N)=O", "note": "[Cbz-His-Tyr(OPO3H2)-Ser(OBn)-Trp-DAla- NH2] (Cbz-H[pY]S(Bn)W[dA]-NH2)", "IC50": 9},
      {"molecule": "C[C@@H](NC(=O)[C@H](Cc1c[nH]c2ccccc12)NC(=O)[C@H](COCc1ccccc1)NC(=O)[C@H](Cc1ccc(OCc2ccccc2)cc1)NC(=O)[C@H](Cc1c[nH]cn1)NC(=O)OCc1ccccc1)C(N)=O", "note": "[Cbz-His-Tyr(OBn)-Ser(OBn)-Trp-DAla- NH2, Nα-[N-[N-[N-[N-[(Phenylmethoxy)carbonyl]-L-histidyl]-O-(phenylmethyl)-L-tyrosyl]-O-(phenylmethyl)-L-seryl]-Ltryptophyl]-D-alaninamide] (Cbz-HY(Bn)S(Bn)W[dA]-NH2)", "IC50": 17},
      {"molecule": "C[C@@H](NC(=O)[C@H](Cc1c[nH]c2ccccc12)NC(=O)[C@H](CS)NC(=O)[C@H](Cc1ccc(OCc2ccccc2)cc1)NC(=O)[C@H](Cc1c[nH]cn1)NC(=O)OCc1ccccc1)C(N)=O", "note": "[Cbz-His-Tyr (OBn)-Cys-Trp-DAla-NH2] (Cbz-HY(Bn)CW[dA]-NH2)", "IC50": 4},
      {"molecule": "C[C@@H](NC(=O)[C@H](Cc1c[nH]c2ccccc12)NC(=O)[C@H](COCc1ccccc1)NC(=O)[C@H](Cc1ccc(OCc2ccccc2)cc1)NC(=O)[C@H](Cc1c[nH]cn1)NC(=O)OCc1ccccc1)C(=O)NN", "note": "[Cbz-His-Tyr(OBn)-Ser(OBn)-Trp-D-Ala- NHNH2] (Cbz-HY(Bn)S(Bn)W[dA]-NHNH2)", "IC50": 62},
      {"molecule": "COC(=O)[C@H](Cc1c[nH]c2ccccc12)NC(=O)[C@H](COCc1ccccc1)NC(=O)[C@H](Cc1ccc(OCc2ccccc2)cc1)NC(=O)[C@H](Cc1c[nH]cn1)NC(=O)OCc1ccccc1", "note": "[Cbz-His-Tyr(OBn)-Ser(OBn)-Trp- OMe, N-[N-[N-[N-[(Phenylmethoxy)carbonyl]-L-histidyl]-O-(phenylmethyl)-L-tyrosyl]-O-(phenylmethyl)-L-seryl]-L-tryptophan, methyl ester] (Cbz-HY(Bn)S(Bn)W-OMe)", "IC50": 115},
      {"molecule": "C[C@@H](NC(=O)[C@H](Cc1c[nH]c2ccccc12)NC(=O)[C@H](COCc1ccccc1)NC(=O)[C@@H](Cc1ccc(OCc2ccccc2)cc1)NC(=O)[C@H](Cc1c[nH]cn1)NC(=O)OCc1ccccc1)C(N)=O", "note": "[Cbz-His-DTyr(OBn)-Ser(OBn)-Trp-DAla-NH2, Cbz-His-D-Tyr(OBn)-Ser(OBn)-Trp-D-Ala- NH2] (Cbz-H[dY](Bn)S(Bn)W[dA]-NH2)", "IC50": 39},
      {"molecule": "C[C@@H](NC(=O)[C@H](Cc1c[nH]c2ccccc12)NC(=O)[C@H](COCc1ccccc1)NC(=O)[C@H](Cc1ccc(OCc2ccccc2)cc1)NC(=O)[C@@H](Cc1c[nH]cn1)NC(=O)OCc1ccccc1)C(N)=O", "note": "[Cbz-DHis-Tyr (OBn)-Ser(OBn)-Trp-DAla-NH2, Cbz-D-His-Tyr(OBn)-Ser(OBn)-Trp-D-Ala- NH2] (Cbz-[dH]Y(Bn)S(Bn)W[dA]-NH2)", "IC50": 120},
      {"molecule": "C[C@@H](NC(=O)[C@H](Cc1c[nH]c2ccccc12)NC(=O)[C@H](CO)NC(=O)[C@H](Cc1ccc(OCc2ccccc2)cc1)NC(=O)[C@H](Cc1c[nH]cn1)NC(=O)OCc1ccccc1)C(N)=O", "note": "[Cbz-His-Tyr(OBn)-Ser-Trp-DAla-NH2, Cbz-His-Tyr(OBn)-Ser-Trp-D-Ala- NH2] (Cbz-HY(Bn)SW[dA]-NH2)", "IC50": 1800},
      {"molecule": "CCNC(=O)[C@@H](C)NC(=O)[C@H](Cc1c[nH]c2ccccc12)NC(=O)[C@H](COCc1ccccc1)NC(=O)[C@H](Cc1ccc(OCc2ccccc2)cc1)NC(=O)[C@H](Cc1c[nH]cn1)NC(=O)OCc1ccccc1", "note": "[Cbz-His-Tyr(OBn)-Ser(OBn)-Trp-DAla- NHEt, Cbz-His-Tyr(OBn)-Ser(OBn)-Trp-D-Ala- NHEt] (Cbz-HY(Bn)S(Bn)W[dA]-NHEt)", "IC50": 230},
      {"molecule": "C[C@H](NC(=O)[C@H](COCc1ccccc1)NC(=O)[C@H](Cc1ccc(OCc2ccccc2)cc1)NC(=O)[C@H](Cc1c[nH]cn1)NC(=O)OCc1ccccc1)C(=O)N[C@H](C)C(N)=O", "note": "[Cbz-His-Tyr (OBn)-Ser(OBn)-Ala-DAla-NH2, Cbz-His-Tyr(OBn)-Ser(OBn)-Ala-D-Ala- NH2] (Cbz-HY(Bn)S(Bn)A[dA]-NH2)", "IC50": 330},
      {"molecule": "C[C@@H](NC(=O)[C@H](Cc1c[nH]c2ccccc12)NC(=O)[C@H](COCc1ccccc1)NC(=O)[C@H](Cc1ccccc1)NC(=O)[C@H](Cc1c[nH]cn1)NC(=O)OCc1ccccc1)C(N)=O", "note": "[Cbz-His-Phe-Ser(OBn)-Trp-DAla-NH2, Cbz-His-Phe-Ser(OBn)-Trp-D-Ala- NH2] (Cbz-HFS(Bn)W[dA]-NH2)", "IC50": 10},
      {"molecule": "C[C@H](NC(=O)[C@H](Cc1c[nH]c2ccccc12)NC(=O)[C@H](COCc1ccccc1)NC(=O)[C@H](Cc1ccc(OCc2ccccc2)cc1)NC(=O)[C@H](Cc1c[nH]cn1)NC(=O)OCc1ccccc1)C(N)=O", "note": "[Cbz-His-Tyr(OBn)-Ser(OBn)-Trp-Ala-NH2, Cbz-His-Tyr(OBn)-Ser(OBn)-Trp-Ala- NH2] (Cbz-HY(Bn)S(Bn)WA-NH2)", "IC50": 15},
      {"molecule": "NC(=O)[C@H](Cc1c[nH]c2ccccc12)NC(=O)[C@H](COCc1ccccc1)NC(=O)[C@H](Cc1ccc(OCc2ccccc2)cc1)NC(=O)[C@H](Cc1c[nH]cn1)NC(=O)OCc1ccccc1", "note": "[Cbz-His-Tyr(OBn)-Ser(OBn)-Trp-NH2, Cbz-His-Tyr(OBn)-Ser(OBn)-Trp- NH2] (Cbz-HY(Bn)S(Bn)W-NH2)", "IC50": 83},
      {"molecule": "C[C@@H](NC(=O)[C@H](Cc1c[nH]c2ccccc12)NC(=O)[C@H](COCc1ccccc1)NC(=O)[C@H](Cc1ccc(OCc2ccccc2)cc1)NC(=O)[C@H](Cc1c[nH]cn1)NC(=O)OCc1ccccc1)C(=O)O", "note": "[Cbz-His-Tyr(OBn)-Ser(OBn)-Trp-DAla- OH, Cbz-His-Tyr(OBn)-Ser(OBn)-Trp-D-Ala] (Cbz-HY(Bn)S(Bn)W[dA]-OH)", "IC50": 48},
      {"molecule": "C[C@@H](NC(=O)[C@H](Cc1c[nH]c2ccccc12)NC(=O)[C@H](COCc1ccccc1)NC(=O)[C@H](Cc1ccc(O)cc1)NC(=O)[C@H](Cc1c[nH]cn1)NC(=O)OCc1ccccc1)C(N)=O", "note": "[Cbz-His-Tyr-Ser(OBn)-Trp-DAla-NH2, Cbz-His-Tyr-Ser(OBn)-Trp-D-Ala- NH2] (Cbz-HYS(Bn)W[dA]-NH2)", "IC50": 40}
    ]}
  ]
}
